Experimental data taken from patent US11787802B2, “Dihydrobenzimidazolones for medical treatment” (C4 Therapeutics, Inc., priority 2017, dated 2023).
Structures can show the parent of a compound that is named as a salt.

What follows are compounds tested against hCereblon(M1-L442)_hDDB1(M1-H1140) (Homo sapiens (Human), UniProt Q96SW2) (assay: Fluorescence direct binding protocol (tryptophan fluorescence titration)). Settings: fluorescence titration at 20° C., excited at 280 nm, recorded at 340 nm; protein 5.0 E−8 M; assay buffer 50 mM Hepes 7.4 200 mM NaCl; read-out: Fluorescence h-Cereblon_DDB1 Mean Kd_EQ.
Protocol: Fluorescence Direct Binding Protocol
Determination of the affinities of compounds to protein containing one or more tryptophan is measurable by monitoring the fluorescence emission in direct mode. The measurements depending on the protein available amounts are performed either manually in a cuvette on ISS-PC1 photon counting spectrofluorometer or automatically in well plates on a fluorescence plate reader device. Fluorescence titrations are performed at 20° C. in the chosen binding assay buffer by using a defined constant protein concentration against ligand concentration variations. Small aliquots of known ligand concentration solubilized in DMSO were added and the fluorescence, excited at 280 nm, was recorded at 340 nm. The fluorescence intensity was corrected for protein dilution and for the filter effect (Birdsall et al.^69). The corrected fluorescence intensity was plotted against the ligand concentration and fitted using a four-parameter sigmoidal function, from which the equilibrium dissociation constant Kd was computed using the law of mass action assuming a 1:1 protein-ligand complex (Eftink, 1997^70).
Process • 1) Optimization of measurement parameters to minimize protein consumption and to minimize the dilution effect and the DMSO content • 2) Titration measurements of the protein against ligand by at least 12 titration steps to obtain a good s-curve fit • 3) Repeat the same titration measurements with the ligand alone to enable correction • 4) Check the stability of the protein once by titration against DMSO alone • 5) Determination of the molar extinction coefficients of the ligand at 280 and 340 nm with help of an UV-spectrophotometer • 6) Use Excel template for the correction of the measured raw data • 7) Use GraphPad Prism software for the quadratic binding fit and the KD evaluation.

Sequence of hCereblon(M1-L442)_hDDB1(M1-H1140) (Q96SW2 whole entry): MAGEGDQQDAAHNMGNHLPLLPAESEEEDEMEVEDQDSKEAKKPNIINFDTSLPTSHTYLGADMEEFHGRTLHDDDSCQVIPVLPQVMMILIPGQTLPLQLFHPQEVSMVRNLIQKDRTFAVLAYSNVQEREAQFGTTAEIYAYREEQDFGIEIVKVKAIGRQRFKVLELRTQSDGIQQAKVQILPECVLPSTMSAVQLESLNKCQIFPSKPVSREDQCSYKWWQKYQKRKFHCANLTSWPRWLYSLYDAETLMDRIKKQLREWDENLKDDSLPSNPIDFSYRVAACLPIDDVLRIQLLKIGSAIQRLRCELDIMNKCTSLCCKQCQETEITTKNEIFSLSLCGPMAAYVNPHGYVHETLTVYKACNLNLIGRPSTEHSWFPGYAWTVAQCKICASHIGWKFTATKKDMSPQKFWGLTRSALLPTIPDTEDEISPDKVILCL
Sequence of hCereblon(M1-L442)_hDDB1(M1-H1140) (Q16531 whole entry partner): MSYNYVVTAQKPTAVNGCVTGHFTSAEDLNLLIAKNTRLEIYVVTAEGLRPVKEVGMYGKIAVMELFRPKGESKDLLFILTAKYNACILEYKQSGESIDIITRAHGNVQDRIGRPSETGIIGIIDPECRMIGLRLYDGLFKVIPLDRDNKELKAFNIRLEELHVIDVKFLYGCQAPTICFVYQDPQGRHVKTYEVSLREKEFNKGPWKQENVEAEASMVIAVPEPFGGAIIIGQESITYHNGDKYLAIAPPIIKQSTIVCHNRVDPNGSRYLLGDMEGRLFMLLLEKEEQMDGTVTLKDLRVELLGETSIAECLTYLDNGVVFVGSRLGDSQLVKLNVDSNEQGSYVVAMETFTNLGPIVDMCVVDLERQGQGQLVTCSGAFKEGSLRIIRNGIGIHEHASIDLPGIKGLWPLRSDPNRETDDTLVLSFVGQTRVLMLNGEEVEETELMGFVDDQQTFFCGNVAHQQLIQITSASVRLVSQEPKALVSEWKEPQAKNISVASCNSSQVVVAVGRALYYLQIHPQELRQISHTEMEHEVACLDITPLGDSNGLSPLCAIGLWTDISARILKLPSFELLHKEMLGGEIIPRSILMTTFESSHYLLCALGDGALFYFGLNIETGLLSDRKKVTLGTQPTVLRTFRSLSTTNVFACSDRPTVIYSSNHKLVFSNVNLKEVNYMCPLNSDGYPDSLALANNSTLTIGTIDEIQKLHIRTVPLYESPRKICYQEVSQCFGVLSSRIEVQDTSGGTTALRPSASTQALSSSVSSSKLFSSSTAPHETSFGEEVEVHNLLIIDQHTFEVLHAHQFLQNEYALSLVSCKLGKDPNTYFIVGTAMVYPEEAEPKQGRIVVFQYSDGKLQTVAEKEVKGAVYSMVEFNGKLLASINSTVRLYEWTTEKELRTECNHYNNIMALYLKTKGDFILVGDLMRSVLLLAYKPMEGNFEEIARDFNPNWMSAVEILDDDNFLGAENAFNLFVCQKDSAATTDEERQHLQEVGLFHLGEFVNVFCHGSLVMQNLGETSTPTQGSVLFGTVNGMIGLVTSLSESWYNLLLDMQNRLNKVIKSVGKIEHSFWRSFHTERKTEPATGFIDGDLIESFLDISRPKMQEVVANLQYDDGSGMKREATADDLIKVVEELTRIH

Row | Structure (SMILES) | Kd
1 | O=c1[nH]c2ccc(-c3ccc(-n4cccc4)cc3)cc2[nH]1 [Example 41, 5-(4-Pyrrol-1-yl-phenyl)-1,3-dihydro-benzoimidazol-2-one] | 0.018 µM
2 | O=c1[nH]c2ccc(-n3c(CO)nc4ccccc43)cc2[nH]1 [Example 61, 5-[2-(Hydroxymethyl)benzimidazol-1-yl]-1,3-dihydrobenzimidazol-2-one] | 0.029 µM
3 | O=c1[nH]c2ccc(CCCc3ccccc3)nc2[nH]1 [Example 26, 5-(3-Phenyl-propyl)-1,3-dihydro-imidazo[4,5-b]pyridin-2-one] | 0.041 µM
4 | COC(=O)c1cccc2c1nc(C(C)C)n2-c1ccc2[nH]c(=O)[nH]c2c1 [Example 47, Methyl 2-isopropyl-2′-oxo-2′,3′-dihydro-1′H-[1,5′-bibenzo[d]imidazole]-4-carboxylate] | 0.02 µM
5 | CC(=O)Nc1cccc(C(=O)Nc2ccc3[nH]c(=O)[nH]c3c2)c1 [Example 75, 3-Acetamido-N-(2-oxo-2,3-dihydro-1H-benzo[d]imidazol-5-yl)benzamide] | 0.007 µM
6 | COC(=O)c1nc2ccccc2n1-c1ccc2[nH]c(=O)[nH]c2c1 [Example 82, Methyl 1-(2-oxo-1,3-dihydrobenzimidazol-5-yl)benzimidazole-2-carboxylate] | 0.003 µM
7 | Nc1ccc(CC(=O)Nc2ccc3[nH]c(=O)[nH]c3c2)cc1 [Example 70, 2-(4-Aminophenyl)-N-(2-oxo-2,3-dihydro-1H-benzo[d]imidazol-5-yl)acetamide] | 0.001 µM
8 | O=C(Nc1ccc(Nc2ccccc2)cc1)Nc1ccc2[nH]c(=O)[nH]c2c1 [Example 87, 1-(2-Oxo-2,3-dihydro-1H-benzo[d]imidazol-5-yl)-3-(4-(phenylamino)phenyl)urea] | 0.027 µM
9 | NS(=O)(=O)c1ccc(CC(=O)Nc2ccc3[nH]c(=O)[nH]c3c2)cc1 [Example 99, N-(2-Oxo-2,3-dihydro-1H-benzo[d]imidazol-5-yl)-2-(4-sulfamoylphenyl)acetamide] | 0.046 µM
10 | CC(C)c1nccn1-c1ccc2[nH]c(=O)[nH]c2c1 [Example 32, 5-(2-Isopropyl-1H-imidazol-1-yl)-1,3-dihydro-2H-benzo[d]imidazol-2-one] | 0.006 µM
11 | O=C(Nc1ccc2[nH]c(=O)[nH]c2c1)[C@H]1CCCc2ccccc21 [Example 71, (S)—N-(2-Oxo-2,3-dihydro-1H-benzo[d]imidazol-5-yl)-1,2,3,4-tetrahydronaphthalene-1-carboxamide] | 0.016 µM
12 | O=c1[nH]c2ccc(-n3cnc4ccccc43)cc2[nH]1 [Example 83, 5-(Benzimidazol-1-yl)-1,3-dihydrobenzimidazol-2-one] | 0.003 µM
13 | Cn1c(=O)[nH]c2cc(Nc3ccccc3N)ccc21 [Example 53, 5-((2-Aminophenyl)amino)-1-methyl-1,3-dihydro-2H-benzo[d]imidazol-2-one] | 0.049 µM
14 | O=c1[nH]c2ccc(-n3c(C(O)c4ccccc4)nc4ccccc43)cc2[nH]1 (stereo not drawn) [Example 85, 5-[2-[Hydroxy(phenyl)methyl]benzimidazol-1-yl]-1,3-dihydrobenzimidazol-2-one] | 0.003 µM
15 | CNC(=O)c1ccc2c(c1)nc(-c1ccccc1)n2-c1ccc2[nH]c(=O)[nH]c2c1 [Example 10, N-Methyl-2′-oxo-2-phenyl-2′,3′-dihydro-1′H-[1,5′-bibenzo[d]imidazole]-5-carboxamide] | 0.088 µM
16 | O=C(c1ccc2[nH]c(=O)[nH]c2c1)N1CCCc2ccccc21 [Example 97, 5-(1,2,3,4-Tetrahydroquinoline-1-carbonyl)-1,3-dihydro-2H-benzo[d]imidazol-2-one] | 0.009 µM
17 | CNC(=O)c1ccc2nc(C(C)C)n(-c3ccc4[nH]c(=O)[nH]c4c3)c2c1 [Example 30, 2-Isopropyl-N-methyl-2′-oxo-2′,3′-dihydro-1′H-[1,5′-bibenzo[d]imidazole]-6-carboxamide] | 0.001 µM
18 | CC(=O)Nc1ccc(C(=O)Nc2ccc3[nH]c(=O)[nH]c3c2)cc1 [Example 74, 4-Acetamido-N-(2-oxo-2,3-dihydro-1H-benzo[d]imidazol-5-yl)benzamide] | 0.002 µM
19 | O=C(c1ccc2[nH]c(=O)[nH]c2c1)N1CCc2ccccc21 [Example 24, 5-(Indoline-1-carbonyl)-1H-benzo[d]imidazol-2(3H)-one] | 0.001 µM
20 | CC(=O)NCCc1nc2ccccc2n1-c1ccc2[nH]c(=O)[nH]c2c1 [Example 80, N-[2-[1-(2-Oxo-1,3-dihydrobenzimidazol-5-yl)benzimidazol-2-yl]ethyl]acetamide] | 0.015 µM
21 | CC(=O)N1CCC(C(=O)Nc2ccc3[nH]c(=O)[nH]c3c2)CC1 [Example 91, 1-Acetyl-N-(2-oxo-2,3-dihydro-1H-benzo[d]imidazol-5-yl)piperidine-4-carboxamide] | 0.005 µM
22 | Cn1c(=O)[nH]c2ncc(C(=O)Nc3ccccc3)cc21 [Example 27, 1-Methyl-2-oxo-N-phenyl-3H-imidazo[4,5-b]pyridine-6-carboxamide] | 0.001 µM

Other lines, results leading:

Row | Kd | Structure (SMILES)
23 | 0.008 µM | CNC(=O)c1ccc2c(c1)nc(C1(c3ccccc3)CC1)n2-c1ccc2[nH]c(=O)[nH]c2c1 [Example 114, N-Methyl-2′-oxo-2-(1-phenylcyclopropyl)-2′,3′-dihydro-1′H-[1,5′-bibenzo[d]imidazole]-5-carboxamide]
24 | 0.029 µM | O=C1c2ccc(Br)cc2CN1c1ccc2[nH]c(=O)[nH]c2c1 [Example 110, 5-(5-Bromo-1-oxo-isoindolin-2-yl)-1,3-dihydrobenzimidazol-2-one]
25 | 0.338 µM | CNC(=O)c1ccccc1NC(=O)c1ccc2[nH]c(=O)[nH]c2c1 [Example 147, N-(2-(Methylcarbamoyl)phenyl)-2-oxo-2,3-dihydro-1H-benzo[d]imidazole-5-carboxamide]
26 | 0.017 µM | Nc1ccc2c(c1)CCN2Cc1ccc2[nH]c(=O)[nH]c2c1 [Example 149, 5-((5-Aminoindolin-1-yl)methyl)-1,3-dihydro-2H-benzo[d]imidazol-2-one]
27 | < 0.001 µM | COc1cnccc1C(=O)Nc1ccc2[nH]c(=O)[nH]c2c1 [Example 132, 3-Methoxy-N-(2-oxo-2,3-dihydro-1H-benzo[d]imidazol-5-yl)isonicotinamide]
28 | 0.014 µM | COc1ccccc1N1CCN(C(=O)Nc2ccc3[nH]c(=O)[nH]c3c2)CC1 [Example 128, 4-(2-Methoxyphenyl)-N-(2-oxo-2,3-dihydro-1H-benzo[d]imidazol-5-yl)piperazine-1-carboxamide]
29 | 0.159 µM | CC(C)(C)OC(=O)N1CCc2c(C(=O)Nc3ccc4[nH]c(=O)[nH]c4c3)cccc21 [Example 143, tert-Butyl 4-((2-oxo-2,3-dihydro-1H-benzo[d]imidazol-5-yl)carbamoyl)indoline-1-carboxylate]
30 | 0.026 µM | O=C(Nc1cccc(F)c1)Nc1ccc2[nH]c(=O)[nH]c2c1 [Example 127, 1-(3-Fluorophenyl)-3-(2-oxo-2,3-dihydro-1H-benzo[d]imidazol-5-yl)urea]
31 | 0.168 µM | Nc1ccc2c(c1)CCN2c1ccc2[nH]c(=O)[nH]c2c1 [Example 140, 5-(5-Aminoindolin-1-yl)-1,3-dihydro-2H-benzo[d]imidazol-2-one hydrochloride]
32 | 0.022 µM | O=c1[nH]c2ccc(NS(=O)(=O)c3coc4ccccc34)cc2[nH]1 [Example 137, N-(2-Oxo-2,3-dihydro-1H-benzo[d]imidazol-5-yl)benzofuran-3-sulfonamide]
33 | 0.018 µM | CC(=O)Nc1ccc(NCc2ccc3[nH]c(=O)[nH]c3c2)cc1 [Example 146, N-(4-(((2-Oxo-2,3-dihydro-1H-benzo[d]imidazol-5-yl)methyl)amino)phenyl)acetamide]
